Measurements reported in US20100203531A1, “PREDICTING RESPONSIVENESS TO TEMOZOLOMIDE” (priority 2007, published 2010).

How the values were obtained:
Type in all cases: in vivo, human
[1] = test system: GBM38 xenograft; assay: Orthotopic intracranial xenograft survival, GBM38
Method: (§1) In vivo sensitivity of GBM lines to TMZ: To address whether MGMT methylation or polypeptide expression status are predictive of TMZ responsiveness, the effects of TMZ therapy on survival were evaluated in the panel of xenografts using an orthotopic therapy model. Mice with established intracranial xenografts were treated with 66 mg/kg TMZ or placebo daily for 5 days by oral gavage. This TMZ dosing regimen provides the equivalent dose-exposure to TMZ as the standard adjuvant TMZ dosing regimen for GBM patients of 200 mg/m^2×5 days. All mice were followed until reaching a moribund state, and the relative prolongation of survival following TMZ treatment was calculated for each line relative to placebo treatment (Table 1). […] Further analysis of the relationship between TMZ responsiveness and MGMT methylation status in 17 xenograft lines was conducted by comparing the distribution of median survival prolongation results for methylation-positive and methylation-negative groups of xenografts. From this analysis, MGMT methylation was modestly associated with increased TMZ sensitivity (FIG. 2, p=0.039, two-sample rank sum test). […]

[2] = test system: GBM6 xenograft; assay: Orthotopic intracranial xenograft survival, GBM6
Method: (§2) In vivo sensitivity of GBM lines to TMZ: To address whether MGMT methylation or polypeptide expression status are predictive of TMZ responsiveness, the effects of TMZ therapy on survival were evaluated in the panel of xenografts using an orthotopic therapy model. […] This TMZ dosing regimen provides the equivalent dose-exposure to TMZ as the standard adjuvant TMZ dosing regimen for GBM patients of 200 mg/m^2×5 days. All mice were followed until reaching a moribund state, and the relative prolongation of survival following TMZ treatment was calculated for each line relative to placebo treatment (Table 1). […] Further analysis of the relationship between TMZ responsiveness and MGMT methylation status in 17 xenograft lines was conducted by comparing the distribution of median survival prolongation results for methylation-positive and methylation-negative groups of xenografts. From this analysis, MGMT methylation was modestly associated with increased TMZ sensitivity (FIG. 2, p=0.039, two-sample rank sum test). In a similar analysis of MGMT polypeptide expression levels, high levels of MGMT polypeptide expression were invariably associated with relative TMZ resistance, and the absence of MGMT polypeptide expression was associated with significant TMZ sensitivity (r=−0.73, p=0.005). […] While p53, PTEN and EGFR function have been linked to TMZ sensitivity in some models, no correlation between genetic alterations of these genes and TMZ responsiveness was observed.
(§3) Orthotopic model: Therapy evaluations were conducted using an orthotopic tumor model as described elsewhere (Sarkaria et al., Clin Cancer Res, 12:2264-2271 (2006), Giannini et al., Neuro-Oncology, 7:164-176, (2005)). Athymic nude mice (NCI, Frederick, Md.) with established intracranial tumors were randomized into groups of 8 to 10 mice each and treatment was initiated 2 weeks before mice were expected to become moribund. TMZ was purchased from the Mayo Clinic Pharmacy, suspended in Ora-plus (Paddock Laboratories, Minneapolis. […] Mice were observed daily and euthanized when moribund.
(§4) Statistical analysis: Survival distributions were estimated using the Kaplan-Meier method. The log rank test was used to compare survival across treatment groups. All GBM experiments were pooled and Classification and Regression Tree analysis (CART) was used to identify which CpG sites in the MS-PCR assay (CpG sites 78-82, 86-89) were predictive of overall survival in TMZ treated mice. The two-sample rank sum test was used to compare relative differences in survival relative to MGMT MS-PCR status or CpG89 methylation status. Spearman's correlation coefficient was used to assess the association of relative median survival and protein expression levels of MGMT relative to 13-actin.

[3] = test system: GBM16 xenograft; assay: Orthotopic intracranial xenograft survival, GBM16; settings: for Survival Prolongation: median survival relative to placebo, 66 mg/kg oral for 5 days (Table 3), 66 mg/kg
Method: (§5) In vivo sensitivity of GBM lines to TMZ: To address whether MGMT methylation or polypeptide expression status are predictive of TMZ responsiveness, the effects of TMZ therapy on survival were evaluated in the panel of xenografts using an orthotopic therapy model. Mice with established intracranial xenografts were treated with 66 mg/kg TMZ or placebo daily for 5 days by oral gavage. This TMZ dosing regimen provides the equivalent dose-exposure to TMZ as the standard adjuvant TMZ dosing regimen for GBM patients of 200 mg/m^2×5 days. All mice were followed until reaching a moribund state, and the relative prolongation of survival following TMZ treatment was calculated for each line relative to placebo treatment (Table 1). […] Further analysis of the relationship between TMZ responsiveness and MGMT methylation status in 17 xenograft lines was conducted by comparing the distribution of median survival prolongation results for methylation-positive and methylation-negative groups of xenografts. From this analysis, MGMT methylation was modestly associated with increased TMZ sensitivity (FIG. 2, p=0.039, two-sample rank sum test). In a similar analysis of MGMT polypeptide expression levels, high levels of MGMT polypeptide expression were invariably associated with relative TMZ resistance, and the absence of MGMT polypeptide expression was associated with significant TMZ sensitivity (r=−0.73, p=0.005). […] While p53, PTEN and EGFR function have been linked to TMZ sensitivity in some models, no correlation between genetic alterations of these genes and TMZ responsiveness was observed.
(§6) Orthotopic model: Therapy evaluations were conducted using an orthotopic tumor model as described elsewhere (Sarkaria et al., Clin Cancer Res, 12:2264-2271 (2006), Giannini et al., Neuro-Oncology, 7:164-176, (2005)). Athymic nude mice (NCI, Frederick, Md.) with established intracranial tumors were randomized into groups of 8 to 10 mice each and treatment was initiated 2 weeks before mice were expected to become moribund. TMZ was purchased from the Mayo Clinic Pharmacy, suspended in Ora-plus (Paddock Laboratories, Minneapolis. MN), and administered by oral gavage at 66 mg/kg for 5 days. Mice were observed daily and euthanized when moribund.
as §4

[4] = test system: GBM10 xenograft; assay: Orthotopic intracranial xenograft survival, GBM10
Method: as §5, §3, §4

[5] = test system: GBM59 xenograft; assay: Orthotopic intracranial xenograft survival, GBM59
Method: as §1

[6] = test system: GBM28 / GS28 xenograft; assay: Orthotopic intracranial xenograft survival, GBM28 (GS28)
Method: as §5, §6
as §4, with “Spearman's correlation coefficient was used to assess the association of relative median survival and protein expression levels of MGMT relative to 13-actin.” left out

[7] = test system: GBM44 xenograft; assay: Orthotopic intracranial xenograft survival, GBM44
Method: as §2, §3, §4

[8] = test system: GBM34 xenograft; assay: Orthotopic intracranial xenograft survival, GBM34
Method: as §5, §6
as §4, with “Spearman's correlation coefficient was used to assess the association of relative median survival and protein expression levels of MGMT relative to 13-actin.” left out

**Q.** Which Survival benefit ([1]; GBM38, prolongation of median survival relative to placebo, TMZ 66 mg/kg oral x5 days) does the source give for Cn1nnc2c(C(N)=O)ncn2c1=O [TMZ, Temozolomide] here?
**A.** The Survival benefit was 45%.

**Q.** And the TMZ median survival ([1]; GBM38 intracranial xenograft, nude mice, TMZ 66 mg/kg oral daily x5 days)?
**A.** Its TMZ median survival is 80.

**Q.** What about the “Survival Prolongation” value ([2]; GBM6, median survival relative to placebo, 66 mg/kg oral for 5 days (Table 3)) of the same compound?
**A.** The value was 37%.

**Q.** What about the Survival benefit ([2]; GBM6, prolongation of median survival relative to placebo, TMZ 66 mg/kg oral x5 days) of the same compound?
**A.** Its Survival benefit is 37%.

**Q.** And the Survival benefit ([2]; GBM6 generation 20, TMZ 120 mg/kg for 5 days, intracranial)?
**A.** The Survival benefit was 67%.

**Q.** And the Survival benefit ([2]; GBM6 generation 24, TMZ 66 mg/kg for 5 days, intracranial)?
**A.** The Survival benefit was 21%.

**Q.** What about the TMZ median survival ([2]; GBM6 intracranial xenograft, nude mice, TMZ 66 mg/kg oral daily x5 days) of the same compound?
**A.** Its TMZ median survival is 56.

**Q.** And the Temozolomide median survival ([2]; GBM6 intracranial, athymic nude mice, 66 mg/kg oral gavage for 5 days (Table 3))?
**A.** The Temozolomide median survival was 56.

**Q.** What about the “Survival Prolongation” value ([3]; GBM16) of the same compound?
**A.** Its value is 579%.

**Q.** What about the “Survival Prolongation” value ([3]; GBM16, listed as Temozolomide) of the same compound?
**A.** Its value is 579%.

**Q.** What about the Survival benefit ([3]; GBM16, prolongation of median survival relative to placebo, TMZ 66 mg/kg oral x5 days) of the same compound?
**A.** The Survival benefit was 579%.

**Q.** And the TMZ median survival ([3]; GBM16 intracranial xenograft, nude mice, TMZ 66 mg/kg oral daily x5 days)?
**A.** The TMZ median survival was 300.

**Q.** And the Temozolomide median survival ([3]; GBM16 intracranial, athymic nude mice, 66 mg/kg oral gavage for 5 days (Table 3))?
**A.** The Temozolomide median survival was 326.

**Q.** And the “Survival Prolongation” value ([4]; GBM10, median survival relative to placebo, 66 mg/kg oral for 5 days (Table 3))?
**A.** The value was 34%.

**Q.** What about the Survival benefit ([4]; GBM10, prolongation of median survival relative to placebo, TMZ 66 mg/kg oral x5 days) of the same compound?
**A.** Its Survival benefit is 34%.

**Q.** What about the Survival benefit ([4]; GBM10 generation 8, TMZ 120 mg/kg for 5 days, intracranial) of the same compound?
**A.** Its Survival benefit is 6%.

**Q.** What about the Survival benefit ([4]; GBM10 generation 19, TMZ 66 mg/kg for 5 days, intracranial) of the same compound?
**A.** Its Survival benefit is 34%.

**Q.** What about the TMZ median survival ([4]; GBM10 intracranial xenograft, nude mice, TMZ 66 mg/kg oral daily x5 days) of the same compound?
**A.** The TMZ median survival was 55.

**Q.** What about the Temozolomide median survival ([4]; GBM10 intracranial, athymic nude mice, 66 mg/kg oral gavage for 5 days (Table 3)) of the same compound?
**A.** Its Temozolomide median survival is 55.

**Q.** What about the Survival benefit ([5]; GBM59, prolongation of median survival relative to placebo, TMZ 66 mg/kg oral x5 days) of the same compound?
**A.** The Survival benefit was 96%.

**Q.** And the TMZ median survival ([5]; GBM59 intracranial xenograft, nude mice, TMZ 66 mg/kg oral daily x5 days)?
**A.** Its TMZ median survival is 90.

**Q.** What about the Survival benefit ([6]; GBM28, prolongation of median survival relative to placebo, TMZ 66 mg/kg oral x5 days) of the same compound?
**A.** The Survival benefit was 70%.

**Q.** What about the TMZ median survival ([6]; GBM28 intracranial xenograft, nude mice, TMZ 66 mg/kg oral daily x5 days) of the same compound?
**A.** Its TMZ median survival is 56.

**Q.** And the “Survival Prolongation” value ([6]; GS28, median survival relative to placebo, 66 mg/kg oral for 5 days (Table 3))?
**A.** Its value is 70%.

**Q.** And the Temozolomide median survival ([6]; GS28 intracranial, athymic nude mice, 66 mg/kg oral gavage for 5 days (Table 3))?
**A.** The Temozolomide median survival was 56.

**Q.** What about the “Survival Prolongation” value ([7]; GBM44, median survival relative to placebo, 66 mg/kg oral for 5 days (Table 3)) of the same compound?
**A.** The value was 60%.

**Q.** What about the Survival benefit ([7]; GBM44, prolongation of median survival relative to placebo, TMZ 66 mg/kg oral x5 days) of the same compound?
**A.** Its Survival benefit is 60%.

**Q.** And the Survival benefit ([7]; GBM44 generation 5, TMZ 120 mg/kg for 5 days, intracranial)?
**A.** Its Survival benefit is −7%.

**Q.** What about the Survival benefit ([7]; GBM44 generation 12, TMZ 66 mg/kg for 5 days, intracranial) of the same compound?
**A.** The Survival benefit was 60%.

**Q.** What about the TMZ median survival ([7]; GBM44 intracranial xenograft, nude mice, TMZ 66 mg/kg oral daily x5 days) of the same compound?
**A.** The TMZ median survival was 56.

**Q.** And the Temozolomide median survival ([7]; GBM44 intracranial, athymic nude mice, 66 mg/kg oral gavage for 5 days (Table 3))?
**A.** The Temozolomide median survival was 56.

**Q.** What about the “Survival Prolongation” value ([8]; GBM34, median survival relative to placebo, 66 mg/kg oral for 5 days (Table 3)) of the same compound?
**A.** Its value is 294%.

**Q.** And the Survival benefit ([8]; GBM34, prolongation of median survival relative to placebo, TMZ 66 mg/kg oral x5 days)?
**A.** The Survival benefit was 294%.

**Q.** What about the TMZ median survival ([8]; GBM34 intracranial xenograft, nude mice, TMZ 66 mg/kg oral daily x5 days) of the same compound?
**A.** The TMZ median survival was 351.

**Q.** What about the Temozolomide median survival ([8]; GBM34 intracranial, athymic nude mice, 66 mg/kg oral gavage for 5 days (Table 3)) of the same compound?
**A.** The Temozolomide median survival was 351.
